Data as given in patent publication US6066662A, “Hydroxylamine derivatives and their use as metalloproteinase inhibiting agents” (Hoffmann-La Roche Inc., priority 1994, dated 2000).

Molecular target: T1, collagenase (Homo sapiens, UniProt P03956)
T1 construct: endogenous in cells; host or cells: culture of human synovial fibroblasts (conditioned medium)
T1 sequence (P03956 100-469): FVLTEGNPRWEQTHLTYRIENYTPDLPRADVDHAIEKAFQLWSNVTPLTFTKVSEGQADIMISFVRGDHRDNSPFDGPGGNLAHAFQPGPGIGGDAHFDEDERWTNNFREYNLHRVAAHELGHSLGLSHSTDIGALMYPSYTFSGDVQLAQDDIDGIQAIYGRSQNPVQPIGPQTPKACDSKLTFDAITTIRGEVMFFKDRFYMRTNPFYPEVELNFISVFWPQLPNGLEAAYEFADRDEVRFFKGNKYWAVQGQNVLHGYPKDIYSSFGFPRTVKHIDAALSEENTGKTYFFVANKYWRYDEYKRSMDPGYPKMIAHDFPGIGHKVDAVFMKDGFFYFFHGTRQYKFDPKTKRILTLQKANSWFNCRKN
Assay: in vitro collagenase inhibiting activity (Test A)
Format: biochemical
Settings: collagenase from culture of human synovial fibroblasts, trypsin-activated; substrate 14C-acetylated collagen type I from rat tail tendons; microtitre plate assay
Experimental: USA (1976), 73 945, following activation of the pro-collagenase in the conditioned medium by treatment with trypsin. Collagenase activity was measured using ^14 C-acetylated collagen type I from rat tail tendons as the substrate and employing the microtitre plate assay method of Johnson-Wint, B, Anal. Biochem. (1980), 104, 175. The IC50 is that concentration of a test compound in the enzyme digestion which reduces substrate cleavage and solubilization to 50% of that achieved by the enzyme alone.

Row | Compound | IC50
1 | CNC(=O)[C@@H](NC(=O)[C@H](CC1CCC1)C(CN1C(=O)N(C)C(C)(C)C1=O)C(=O)NO)C(C)(C)C (single isomer, unassigned) [Example 5, N2-[3-cyclobutyl-2(R)-[1(R or S)-(hydroxycarbamoyl)-2-(3,4,4-trimethyl-2,5-dioxo-1-imidazolidinyl)ethyl]propionyl]-N1,3-dimethyl-L-valinamide] | 1 nM
2 | CNC(=O)[C@@H](NC(=O)[C@H](CC1CC1)C(CN1C(=O)N(C)C(C)(C)C1=O)C(=O)NO)C(C)(C)C (single isomer, unassigned) [Example 4, N2-[3-cyclopropyl-2(R)-[1(R or S)-(hydroxycarbamoyl)-2-(3,4,4-trimethyl-2,5-dioxo-1-imidazolidinyl)ethyl]propionyl]-N1,3-dimethyl-L-valinamide] | 1 nM
3 | CNC(=O)[C@@H](NC(=O)C(CC(=O)NO)CC1CCCC1)C(C)(C)C (single isomer, unassigned) [Example 3, N2-[3-cyclopentyl-2(R or S)-[(hydroxycarbamoyl)methyl]propionyl]-N1-3-dimethyl-L-valinamide] | 5 nM

The remaining lines, values ahead:

Row | IC50 | Compound
4 | 2 nM | CNC(=O)[C@@H](NC(=O)C(CC(=O)NO)CC1CCC1)C(C)(C)C (single isomer, unassigned) [Example 1, N2-[3-cyclobutyl-2(R or S)-[(hydroxycarbamoyl)-methyl]propionyl]-N1,3-dimethyl-L-valinamide]
5 | 7 nM | CNC(=O)[C@@H](NC(=O)C(CC(=O)NO)CC1CC1)C(C)(C)C (single isomer, unassigned) [Example 2, N2-[3-cyclopropyl-2(R or S)-[(hydroxycarbamoyl)-methyl]propionyl]-N1,3-dimethyl-L-valinamide]
